20 compounds from patent US11512090B2, “Muscarinic acetylcholine M1 receptor antagonists” (PIPELINE THERAPEUTICS, INC., priority 2018, dated 2022) can be followed below.

Common to all, as to format: cell-based
Test [1] has as its target T1, M2 (Homo sapiens, UniProt P08172).
T1 sequence (P08172 1-466): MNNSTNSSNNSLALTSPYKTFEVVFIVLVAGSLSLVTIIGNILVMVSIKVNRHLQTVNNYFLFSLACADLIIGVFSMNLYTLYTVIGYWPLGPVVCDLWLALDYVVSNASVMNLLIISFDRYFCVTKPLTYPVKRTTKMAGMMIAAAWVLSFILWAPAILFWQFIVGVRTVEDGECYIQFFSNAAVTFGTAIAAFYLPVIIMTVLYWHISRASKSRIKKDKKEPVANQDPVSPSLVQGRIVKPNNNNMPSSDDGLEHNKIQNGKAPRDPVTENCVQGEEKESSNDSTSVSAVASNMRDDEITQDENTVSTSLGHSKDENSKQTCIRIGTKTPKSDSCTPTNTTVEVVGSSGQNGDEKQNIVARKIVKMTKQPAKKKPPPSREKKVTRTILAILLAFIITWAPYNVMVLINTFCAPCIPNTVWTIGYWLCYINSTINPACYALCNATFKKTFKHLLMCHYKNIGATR
The test can be described thus: In vitro functional assay of muscarinic acetylcholine receptor activity, M2.

The target of test [2] is M3 (Homo sapiens, UniProt P20309). Put plainly: In vitro functional assay of muscarinic acetylcholine receptor activity, M3. To be noted: antagonist IC50 at M3; read-out: M3 IC50.
M3, sequence (P20309 whole entry): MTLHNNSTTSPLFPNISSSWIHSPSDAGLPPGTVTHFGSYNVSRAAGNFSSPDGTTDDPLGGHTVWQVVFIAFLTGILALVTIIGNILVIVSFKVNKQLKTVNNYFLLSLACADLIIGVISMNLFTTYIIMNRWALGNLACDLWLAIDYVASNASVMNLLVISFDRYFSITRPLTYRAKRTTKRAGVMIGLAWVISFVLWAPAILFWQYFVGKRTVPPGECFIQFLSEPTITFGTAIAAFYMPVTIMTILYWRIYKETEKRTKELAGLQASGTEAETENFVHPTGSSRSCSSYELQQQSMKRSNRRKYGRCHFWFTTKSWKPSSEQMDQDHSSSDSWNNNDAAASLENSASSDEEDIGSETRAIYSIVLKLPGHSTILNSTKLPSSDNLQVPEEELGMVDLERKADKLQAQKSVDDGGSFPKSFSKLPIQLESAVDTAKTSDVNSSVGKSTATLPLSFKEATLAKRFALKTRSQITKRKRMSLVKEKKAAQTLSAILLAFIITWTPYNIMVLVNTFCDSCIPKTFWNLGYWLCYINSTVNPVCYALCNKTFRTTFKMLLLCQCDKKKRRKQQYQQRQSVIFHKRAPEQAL
Test [3] deals with T2, human M1 receptor (Homo sapiens, UniProt P11229).
T2 sequence (P11229 1-460): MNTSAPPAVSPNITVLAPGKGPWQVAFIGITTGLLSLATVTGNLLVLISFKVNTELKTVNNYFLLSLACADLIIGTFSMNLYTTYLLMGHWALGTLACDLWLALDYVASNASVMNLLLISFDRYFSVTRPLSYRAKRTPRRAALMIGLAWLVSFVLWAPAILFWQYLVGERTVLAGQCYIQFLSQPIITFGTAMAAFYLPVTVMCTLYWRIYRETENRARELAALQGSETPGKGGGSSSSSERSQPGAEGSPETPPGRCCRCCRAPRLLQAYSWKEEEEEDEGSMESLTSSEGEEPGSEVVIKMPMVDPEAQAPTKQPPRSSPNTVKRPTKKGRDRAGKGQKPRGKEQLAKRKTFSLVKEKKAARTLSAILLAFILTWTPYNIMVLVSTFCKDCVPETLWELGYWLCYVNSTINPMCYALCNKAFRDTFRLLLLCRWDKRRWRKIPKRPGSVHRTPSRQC
The test can be described thus: In vitro functional assay of muscarinic acetylcholine receptor activity (aequorin calcium flux, antagonist mode vs EC80 acetylcholine), M1. In short, it runs like this:
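CHO-K1 cells stably co-expressing human M1 and aequorin were loaded with 5 uM coelenterazine h for 4 h at room temperature in the dark. IC50 came from the drop in luminescence.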

Where [4] appears, read: antagonist IC50 at M2, read-out: M2 IC50.
Setting [5] is: CHO-K1 cells stably expressing human M1 receptor with Aequorin, decrease in EC80 acetylcholine response, read-out: M1 IC50.

pIC50: −log10 of the molar value. Where two headings read alike, the source gives them in different places. A value given as a limit tells only on which side of the number the result lay.

A word on the pIC50: it is the negative decadic logarithm of the IC50, by convention in mol/L.

Turning to `O=C(CCNCc1c(F)ccc2nccn12)N1CC2CCC(C1)N2c1ccc(C2CC2)cn1` [Example 172, 1-[8-(5-cyclopropylpyridin-2-yl)-3,8-diazabicyclo[3.2.1]octan-3-yl]-3-[({6-fluoroimidazo[1,2-a]pyridin-5-yl}methyl)amino]propan-1-one], the negative logarithm of the IC50 (pIC50) was 5.00 to 6.00 in test [1] (setting [4]), less than 5.00 in test [2] and 5.00 to 6.00 in test [3] (setting [5]).

On to `Cc1ccc2ncnn2c1CNCCC(=O)N1CC2CCC(C1)N2c1ccc(C#N)cn1` [Example 173, 6-(3-{3-[({6-methyl-[1,2,4]triazolo[1,5-a]pyridin-5-yl}methyl)amino]propanoyl}-3,8-diazabicyclo[3.2.1]octan-8-yl)pyridine-3-carbonitrile], for which the pIC50 in test [1] (setting [4]) was less than 5.00; in test [2], less than 5.00; in test [3] it was 6.00 to 7.00.

As for `N#Cc1ccc(N2C3CCC2CN(C(=O)CCN(Cc2cccc4ncnn24)C2COC2)C3)nc1` [Example 174, 6-(3-{3-[(oxetan-3-yl)({[1,2,4]triazolo[1,5-a]pyridin-5-yl}methyl)amino]propanoyl}-3,8-diazabicyclo[3.2.1]octan-8-yl)pyridine-3-carbonitrile], the pIC50 in test [1] (setting [4]) was less than 5.00; in test [2] it was less than 5.00; in test [3], 6.00 to 7.00.

As for `N#Cc1ccc(-c2ccc(N3C4CCC3CN(C(=O)CCNCc3cccc5ncnn35)C4)cc2)nc1` [Example 175, 6-[4-(3-{3-[({[1,2,4]triazolo[1,5-a]pyridin-5-yl}methyl)amino]propanoyl}-3,8-diazabicyclo[3.2.1]octan-8-yl)phenyl]pyridine-3-carbonitrile], the figures for the pIC50 in test [1] (setting [4]), in test [2] and in test [3] were 5.00 to 6.00, less than 5.00 and 6.00 to 7.00, respectively.

With `Cc1ccc(COCCC(=O)N2CC3CCC(C2)N3c2ccc(C#N)cn2)c2cccnc12` [Example 176, 6-(3-{3-[(8-methylquinolin-5-yl)methoxy]propanoyl}-3,8-diazabicyclo[3.2.1]octan-8-yl)pyridine-3-carbonitrile], the pIC50 was 5.00 to 6.00 in test [1] (setting [4]), less than 5.00 in test [2] and 6.00 to 7.00 in test [3].

Regarding `Cc1ccc2ncccc2c1COCCC(=O)N1CC2CCC(C1)N2c1ccc(C#N)cn1` [Example 177, 6-(3-{3-[(6-methylquinolin-5-yl)methoxy]propanoyl}-3,8-diazabicyclo[3.2.1]octan-8-yl)pyridine-3-carbonitrile], the pIC50 was 5.00 to 6.00 in test [1] (setting [4]), 5.00 to 6.00 in test [2] and more than 7.00 in test [3].

As to `COc1cnc2cccc(CNCCC(=O)N3CC4CCC(C3)N4c3ccc(Cl)cn3)c2c1` [Example 178, 1-[8-(5-chloropyridin-2-yl)-3,8-diazabicyclo[3.2.1]octan-3-yl]-3-{[(3-methoxyquinolin-5-yl)methyl]amino}propan-1-one], the pIC50 in test [1] (setting [4]) was less than 5.00; in test [2], less than 5.00; in test [3], 6.00 to 7.00.

With `O=C(COCCc1cccn2ncnc12)N1CC2CCC(C1)N2c1ccc(Cl)cn1` [Example 179, 1-[8-(5-chloropyridin-2-yl)-3,8-diazabicyclo[3.2.1]octan-3-yl]-2-(2-{[1,2,4]triazolo[1,5-a]pyridin-8-yl}ethoxy)ethan-1-one], the results for the pIC50 in test [1] (setting [4]), in test [2] and in test [3] were less than 5.00, less than 5.00 and more than 7.00, respectively.

As for `N#Cc1ccc(N2C3CCC2CN(C(=O)COCCc2cccn4ncnc24)C3)nc1` [Example 180, 6-{3-[2-(2-{[1,2,4]triazolo[1,5-a]pyridin-8-yl}ethoxy)acetyl]-3,8-diazabicyclo[3.2.1]octan-8-yl}pyridine-3-carbonitrile], the pIC50 was 5.00 to 6.00 in test [1] (setting [4]), less than 5.00 in test [2] and more than 7.00 in test [3].

Turning to `COc1cnc2cccc(CCOCC(=O)N3CC4CCC(C3)N4c3ccc(C#N)cn3)c2c1` [Example 181, 6-(3-{2-[2-(3-methoxyquinolin-5-yl)ethoxy]acetyl}-3,8-diazabicyclo[3.2.1]octan-8-yl)pyridine-3-carbonitrile], the pIC50 is 5.00 to 6.00 in test [1] (setting [4]), 5.00 to 6.00 in test [2] and more than 7.00 in test [3].

As for `N#Cc1ccc(N2C3CCC2CN(C(=O)COCc2cccc4ncnn24)C3)nc1` [Example 182, 6-{3-[2-({[1,2,4]triazolo[1,5-a]pyridin-5-yl}methoxy)acetyl]-3,8-diazabicyclo[3.2.1]octan-8-yl}pyridine-3-carbonitrile], the negative logarithm of the IC50 (pIC50) in test [1] (setting [4]) is less than 5.00; in test [2], less than 5.00; in test [3] (setting [5]), 5.00 to 6.00.

Turning to `N#Cc1ccc(N2C3CCC2CN(C(=O)COCCc2cccc4ncnn24)C3)nc1` [Example 183, 6-{3-[2-(2-{[1,2,4]triazolo[1,5-a]pyridin-5-yl}ethoxy)acetyl]-3,8-diazabicyclo[3.2.1]octan-8-yl}pyridine-3-carbonitrile], the pIC50 in test [1] (setting [4]) is less than 5.00; in test [2], 5.00 to 6.00; in test [3] it was more than 7.00.

In the case of `N#Cc1ccc(N2C3CCC2CN(C(=O)COCc2cccn4ncnc24)C3)nc1` [Example 184, 6-{3-[2-({[1,2,4]triazolo[1,5-a]pyridin-8-yl}methoxy)acetyl]-3,8-diazabicyclo[3.2.1]octan-8-yl}pyridine-3-carbonitrile], the results for the negative-log IC50 (pIC50) in test [1] (setting [4]), in test [2] and in test [3] were less than 5.00, less than 5.00 and more than 7.00, respectively.

Take `N#Cc1ccc(N2C3CCC2CN(C(=O)CCOCc2cccc4nccn24)C3)nc1` [Example 186, 6-{3-[3-({imidazo[1,2-a]pyridin-5-yl}methoxy)propanoyl]-3,8-diazabicyclo[3.2.1]octan-8-yl}pyridine-3-carbonitrile]: the results for the pIC50 in test [1] (setting [4]), in test [2] and in test [3] were less than 5.00, 5.00 to 6.00 and more than 7.00, respectively.

Consider `N#Cc1ccc(N2C3CCC2CN(C(=O)CCOCc2cccc4c2OCO4)C3)nc1` [Example 187, 6-(3-{3-[(2H-1,3-benzodioxol-4-yl)methoxy]propanoyl}-3,8-diazabicyclo[3.2.1]octan-8-yl)pyridine-3-carbonitrile], for which the negative-log IC50 (pIC50) in test [1] (setting [4]) was less than 5.00; in test [2], less than 5.00; in test [3], 6.00 to 7.00.

With `N#Cc1ccc(N2C3CCC2CN(C(=O)CCOCc2cccc4ncc(C(F)(F)F)n24)C3)nc1` [Example 188, 6-[3-(3-{[3-(trifluoromethyl)imidazo[1,2-a]pyridin-5-yl)methoxy}propanoyl)-3,8-diazabicyclo[3.2.1]octan-8-yl)pyridine-3-carbonitrile], the pIC50 in test [1] (setting [4]) was 5.00 to 6.00; in test [2], less than 5.00; in test [3] (setting [5]), 5.00 to 6.00.

Consider `O=C(CCNCc1cccc2ncnn12)N1CC2CCC(C1)N2c1ccc(-c2ccccc2)cn1` [Example 193, 1-[8-(5-phenylpyridin-2-yl)-3,8-diazabicyclo[3.2.1]octan-3-yl]-3-[({[1,2,4]triazolo[1,5-a]pyridin-5-yl}methyl)amino]propan-1-one], for which the figures for the pIC50 in test [1] (setting [4]), in test [2] and in test [3] (setting [5]) were less than 5.00, 5.00 to 6.00 and 5.00 to 6.00, respectively.

For the compound `N#Cc1ccc(N2C3CCC2CN(C(=O)C2CC(=Cc4cccc5ncccc45)C2)C3)nc1` (stereo not drawn) [Example 194, 6-(3-{3-[(quinolin-5-yl)methylidene]cyclobutanecarbonyl}-3,8-diazabicyclo[3.2.1]octan-8-yl)pyridine-3-carbonitrile], the values for the pIC50 in test [1], in test [2] and in test [3] were 6.00 to 7.00, 5.00 to 6.00 and more than 7.00, respectively.

As for `N#Cc1ccc(N2C3CCC2CN(C(=O)C2CC(=Cc4cccc5cnccc45)C2)C3)nc1` (stereo not drawn) [Example 195, 6-(3-{3-[(isoquinolin-5-yl)methylidene]cyclobutanecarbonyl}-3,8-diazabicyclo[3.2.1]octan-8-yl)pyridine-3-carbonitrile], the pIC50 in test [1] (setting [4]), in test [2] and in test [3] (setting [5]) was 5.00 to 6.00 in each case.

For the compound `N#Cc1ccc(N2C3CCC2CN(C(=O)[C@H]2C[C@H](Oc4cccc5ncsc45)C2)C3)nc1` [Example 197, 6-{3-[(1r,3r)-3-(1,3-benzothiazol-7-yloxy)cyclobutanecarbonyl]-3,8-diazabicyclo[3.2.1]octan-8-yl}pyridine-3-carbonitrile], the pIC50 in test [1] (setting [4]) was less than 5.00; in test [2], less than 5.00; in test [3] it was 6.00 to 7.00.
